Broadly, the EC50 is the concentration at which the effect is half-maximal.

The source of these data is patent US8389739B1, “Modulators of retinoid-related orphan receptor gamma” (Orphagen Pharmaceuticals, priority 2006, dated 2013).

Holding throughout (format): cell-based
Assay [1] addresses T1, hPPARδ (Homo sapiens, UniProt Q03181).
T1 construct: 138-441; expressed in transfected cells; host or cells: CHO cells, transient transfection
T1 sequence (Q03181 138-441): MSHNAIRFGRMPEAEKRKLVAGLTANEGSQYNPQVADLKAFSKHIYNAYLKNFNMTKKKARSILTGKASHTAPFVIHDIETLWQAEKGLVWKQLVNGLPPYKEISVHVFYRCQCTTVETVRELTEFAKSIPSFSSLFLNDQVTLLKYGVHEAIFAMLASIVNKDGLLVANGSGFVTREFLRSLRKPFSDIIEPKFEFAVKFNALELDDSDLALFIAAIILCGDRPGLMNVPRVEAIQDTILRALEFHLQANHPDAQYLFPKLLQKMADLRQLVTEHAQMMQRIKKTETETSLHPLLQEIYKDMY
The experiment in a line: Crossreactive receptor transcriptional assay (Gal4 hybrid).

The target of assay [2] is T2, hPPARα (Homo sapiens, UniProt Q07869).
T2 construct: 166-468; expressed in transfected cells; host or cells: CHO cells, transient transfection
T2 sequence (Q07869 166-468): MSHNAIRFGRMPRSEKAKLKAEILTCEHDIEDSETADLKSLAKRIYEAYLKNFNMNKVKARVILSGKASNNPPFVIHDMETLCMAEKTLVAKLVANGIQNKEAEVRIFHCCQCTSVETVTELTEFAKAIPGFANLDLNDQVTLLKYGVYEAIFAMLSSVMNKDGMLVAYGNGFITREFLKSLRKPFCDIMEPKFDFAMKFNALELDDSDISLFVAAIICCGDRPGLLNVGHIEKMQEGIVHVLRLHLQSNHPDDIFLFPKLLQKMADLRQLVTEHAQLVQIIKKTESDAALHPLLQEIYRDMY
The assay is described as above.

The target of assay [3] is T3, hRARα (retinoic acid receptor alpha) (Homo sapiens, UniProt P10276).
T3 construct: 156-462; expressed in transfected cells; host or cells: CHO cells, transient transfection
T3 sequence (P10276 156-462): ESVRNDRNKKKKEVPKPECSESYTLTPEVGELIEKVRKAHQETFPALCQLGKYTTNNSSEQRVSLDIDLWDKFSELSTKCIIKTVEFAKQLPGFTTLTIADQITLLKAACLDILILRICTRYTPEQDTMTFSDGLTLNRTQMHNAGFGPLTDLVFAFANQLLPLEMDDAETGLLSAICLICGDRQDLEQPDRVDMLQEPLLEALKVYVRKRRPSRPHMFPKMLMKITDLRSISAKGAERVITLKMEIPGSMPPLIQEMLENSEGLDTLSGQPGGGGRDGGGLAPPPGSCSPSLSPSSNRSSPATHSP
The assay is described as above.

Assay [4] has as its target T4, hERα (Estrogen receptor-alpha) (Homo sapiens, UniProt P03372).
T4 construct: 249-595; expressed in transfected cells; host or cells: CHO cells, transient transfection
T4 sequence (P03372 249-595): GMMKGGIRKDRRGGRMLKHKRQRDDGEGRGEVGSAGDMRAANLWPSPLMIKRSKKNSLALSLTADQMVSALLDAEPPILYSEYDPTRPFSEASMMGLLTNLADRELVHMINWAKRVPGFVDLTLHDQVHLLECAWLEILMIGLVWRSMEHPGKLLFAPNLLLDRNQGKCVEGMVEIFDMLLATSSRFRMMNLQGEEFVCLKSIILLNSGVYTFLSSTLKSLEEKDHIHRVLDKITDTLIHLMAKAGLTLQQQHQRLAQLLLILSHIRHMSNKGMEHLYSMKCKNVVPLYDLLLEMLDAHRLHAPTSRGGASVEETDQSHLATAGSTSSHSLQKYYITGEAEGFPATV
The assay is described as above.

Assay [5] has as its target T5, mRORγ (Mus musculus, UniProt P51450).
T5 construct: expressed in transfected cells; host or cells: CHO cells, transient transfection
The experiment in a line: Transcriptional assay, Gal4-mRORγ with luciferase reporter in CHO cells. On the procedure:
The complete Gal4-mRORγ nucleotide sequence is shown below:
A firefly luciferase reporter gene for Gal4 DBD hybrid receptors, such as Gal4-RORγ, contains five copies of the Gal4 17-mer response element in its promoter and the coding sequence for firefly luciferase (pG5-luc, Promega). CHO (Chinese Hamster Ovary) cells were cultured in Ham's F12 medium supplemented with 10% fetal calf serum (Gemini Biologicals), 10 μg/ml penicillin and streptomycin, and were maintained in a humidified 37° C. incubator (Thermo Electron, Steri-Cycle) with 5% CO2. 24 hours before transfection, cells were plated in T175 flasks (5×10^6 cells/flask) or T75 flasks (1.7×10^6 cells/flask). Transient transfection of CHO cells was performed using TransIT-CHO reagents (Minis, Madison, Wis.) with a mixing ratio of 2:6:1 between plasmid DNA (in μg), TransIT-CHO (in μl) and CHO-mojo (in μl).
Plates are maintained at 37° C. in a humidified atmosphere with 7% CO2 overnight. Four (4) hours after cell seeding, compounds dissolved in DMSO at 10 mM were added to cells at final concentrations of 20 micromolar (μM) to 20 nanomolar (nM) in 0.2% DMSO in triplicate plates. Approximately 40 hours later, cytotoxicity in the assay well was characterized by addition of the dye resazurin (O'Brien, Wilson et al. 2000) to a final concentration of 3 μM. […] Percent viability was determined as 2 hour fluorescence, minus background at t=0 hours, normalized to DMSO controls. For detection of luciferase activity, media was removed from plates after the measurement of resazurin conversion, and SteadyLite luciferase reagent (Perkin-Elmer) was added (30 μl/well). Luminescence is detected with a Victor 2-V plate reader (Perkin-Elmer) and normalized to luciferase activity of DMSO control wells alone.

Where [6] appears, read: Table 6, RORγ ligands: no significant activity at 20 μM, read-out: Potency (EC50) at hPPARδ.
Where [7] appears, read: Table 6, RORγ ligands: no significant activity at 20 μM, read-out: Potency (EC50) at hPPARα.
[8] abbreviates: Table 6, read-out: Potency (EC50) at hRARα.
Where [9] appears, read: Table 6, read-out: Potency (EC50) at hERα.
[10] abbreviates: Table 4A, medians of two or more assays, unit inferred, read-out: EC50 Transcriptional.
Where [11] appears, read: read-out: EC50 in the transcriptional assay for RORγ.

Structures are written as SMILES. “And” between values parts separate entries of the source, which are not always exact repeats. Equal values may be shown once. Read-outs that look alike come from different tables or passages of the source. A value given as a limit tells only on which side of the number the result lay.

T5 sequence (P51450 with tags, fused parts or gaps): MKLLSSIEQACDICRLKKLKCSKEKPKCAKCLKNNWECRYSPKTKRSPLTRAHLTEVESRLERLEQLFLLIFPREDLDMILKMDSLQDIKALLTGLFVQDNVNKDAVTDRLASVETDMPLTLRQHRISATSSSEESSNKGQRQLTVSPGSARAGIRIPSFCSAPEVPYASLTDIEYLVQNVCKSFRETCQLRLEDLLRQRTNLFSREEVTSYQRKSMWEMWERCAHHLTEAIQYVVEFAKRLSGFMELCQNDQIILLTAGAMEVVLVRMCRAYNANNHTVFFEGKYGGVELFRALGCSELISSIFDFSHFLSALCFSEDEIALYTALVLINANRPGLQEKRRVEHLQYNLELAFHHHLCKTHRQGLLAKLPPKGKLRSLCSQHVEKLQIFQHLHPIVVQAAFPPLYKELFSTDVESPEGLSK

As to `O=S(=O)(c1ccccc1)N(CC(F)(F)F)c1ccc(C(O)(C(F)(F)F)C(F)(F)F)cc1` [Compound T0901317, N-(2,2,2-Trifluoro-ethyl)-N-[4-(2,2,2-trifluoro-1-hydroxy-1-trifluoromethyl-ethyl)-phenyl]-benzenesulfonamide, reference compound], the EC50 in assay [1] (setting [6]), in assay [2] (setting [7]), in assay [3] (setting [8]) and in assay [4] (setting [9]) was > 10 µM in each case.
In the case of `CCn1c(CNc2ccc(Cl)cc2)nnc1SCC(=O)Nc1cccc2ccccc12` [OR-133008, 2-{5-[(4-Chloro-phenylamino)-methyl]-4-ethyl-4H-[1,2,4]triazol-3-ylsulfanyl}-N-naphthalen-1-yl-acetamide], the EC50 is > 10 µM in assay [1] (setting [6]); > 10 µM in assay [2] (setting [7]); > 10 µM in assay [3] (setting [8]); > 10 µM in assay [4] (setting [9]); 1.46 µM in assay [5] (setting [10]).
`CCN(c1ccc(C(O)(C(F)(F)F)C(F)(F)F)cc1)S(=O)(=O)c1ccc([N+](=O)[O-])cc1` [OR-1050, N-Ethyl-4-nitro-N-[4-(2,2,2-trifluoro-1-hydroxy-1-trifluoromethyl-ethyl)-phenyl]-benzenesulfonamide]: the EC50 in assay [1] (setting [6]) is > 10 µM; in assay [2] (setting [7]), > 10 µM; in assay [3] (setting [8]), > 10 µM; in assay [4] (setting [9]) it was > 10 µM; in assay [5] (Table 1, antagonists, inhibition of basal Gal4-mRORγ transcription in CHO cells, read-out: Assay EC50 in micromolar at mRORγ Transcriptional) it was 0.26 µM; in assay [5] (Table 7, taken from Table 1, read-out: Assay EC50 in micromolar at mRORγ Transcriptional) it was 0.26 µM. For the same compound, the concentration giving a half-maximal response (EC50) in assay [5] (setting [11]) is < 1 µM and 0.3 µM.
Consider `COC(C)CCC(C)C1CCC2C3CC(O)C4CC(O)CCC4(C)C3CCC12C` (centres unmarked) [OR-12872, 17-(4-Methoxy-1-methyl-pentyl)-10,13-dimethyl-hexadecahydro-cyclopenta[a]phenanthrene-3,6-diol], for which the half-maximal effective concentration (EC50) in assay [1] (setting [6]) is > 10 µM; in assay [2] (setting [7]), > 10 µM; in assay [3] (setting [8]), > 10 µM; in assay [4] (setting [9]) it was > 10 µM; in assay [5] (Table 2, agonists, antagonist OR-376 (1.5 μM) added to reduce basal transcriptional activity, read-out: EC50 in micromolar at mRORγ Transcriptional) it was 0.44 µM.
`COc1c(C=NNc2nc(N3CCCCC3)nc(N3CCCCC3)n2)cccc1[N+](=O)[O-]` [OR-2161, N-(4,6-Di-piperidin-1-yl-[1,3,5]triazin-2-yl)-N′-(2-methoxy-3-nitro-benzylidene)-hydrazine]: the half-maximal effective concentration (EC50) in assay [1] (setting [6]) is > 10 µM; in assay [2] (setting [7]), > 10 µM; in assay [3] (setting [8]), > 10 µM; in assay [4] (setting [9]), > 10 µM; in assay [5] (setting [10]), 0.33 µM.
On to `CC(=O)O[C@H]1CC[C@@]2(C)C(CC[C@]3(C)C2C(=O)C=C2C4[C@@H](C)[C@H](C)CC[C@]4(C(=O)O)CC[C@]23C)C1(C)C` (stereo in doubt) [OR-13571, 10-Acetoxy-1,2,6a,6b,9,9,12a-heptamethyl-13-oxo-1,3,4,5,6,6a,6b,7,8,8a,9,10,11,12,12a,12b,13,14b-octadecahydro-2H-picene-4a-carboxylic acid], for which the concentration for a half-maximal effect (EC50) in assay [1] (setting [6]) is > 10 µM; in assay [2] (setting [7]), > 10 µM; in assay [3] (setting [8]) it was > 10 µM; in assay [4] (setting [9]) it was > 10 µM; in assay [5] (setting [10]) it was 0.27 µM; in assay [5] (setting [11]) it was < 1 µM.
For the compound `C[C@@H]1CC[C@@]2(OC1)O[C@H]1C[C@H]3[C@@H]4CC[C@H]5C[C@@H](O)CC[C@]5(C)[C@H]4C[C@@H](O)[C@]3(C)[C@H]1[C@@H]2C` [OR-885, 5α,20α, 22α, 25D-SPIROSTAN-3β, 12β-DIOL], the EC50 in assay [1] was > 10 µM; in assay [2], > 10 µM; in assay [3] it was > 10 µM; in assay [4], > 10 µM; in assay [5] (Table 3, steroidal antagonists, read-out: Assay EC50 in micromolar transcriptional), 0.2 µM; in assay [5] (setting [11]), < 1 µM.
